HELM strings list units from the 5' end as sugar, base in round brackets, then linkage (d deoxyribose, r ribose, m 2'-O-methyl, p phosphodiester). Strings are as the collection lists them; they lack the last nucleoside at the 3' end of the tested compound. [moe] = 2'-O-(2-methoxyethyl) (MOE); [sp] = phosphorothioate linkage; [m5C] = 5-methylcytosine
biological target: SCN2A; test: mouse, dose not given; conditions: ASO

| Substance | 3 h FOB score |
| --- | --- |
| RNA1{[moe](G)[sp].[moe]([m5C])p.[moe](A)p.[moe](T)p.d(G)[sp].d(T)[sp].d(T)[sp].d(T)[sp].d(A)[sp].d(T)[sp].d([m5C])[sp].d(T)[sp].d(T)[sp].d(A)[sp].[moe](G)p.[moe](T)p.[moe](T)p.[moe]([m5C])[sp].[moe](T)}$$$$ (last 3' nucleoside missing) | 0 score 0-7 |
| RNA1{[moe](G)[sp].[moe]([m5C])p.[moe](T)p.[moe](T)p.[moe](T)p.d([m5C])[sp].d([m5C])[sp].d([m5C])[sp].d(T)[sp].d(T)[sp].d(T)[sp].d(A)[sp].d(T)[sp].d(T)[sp].d([m5C])[sp].[moe](A)p.[moe](A)p.[moe](T)[sp].[moe](A)}$$$$ (last 3' nucleoside missing) | 0 score 0-7 |
| RNA1{[moe](G)[sp].[moe]([m5C])p.[moe]([m5C])p.[moe](A)p.d(T)[sp].d(T)[sp].d(T)[sp].d([m5C])[sp].d(T)[sp].d(A)[sp].d(T)[sp].d(A)[sp].d(A)[sp].d([m5C])[sp].[moe](T)p.[moe]([m5C])p.[moe](A)p.[moe](G)[sp].[moe]([m5C])}$$$$ (last 3' nucleoside missing) | 0 score 0-7 |
| RNA1{[moe](G)[sp].[moe]([m5C])p.[moe]([m5C])p.[moe](T)p.[moe](A)p.d([m5C])[sp].d(T)[sp].d(T)[sp].d([m5C])[sp].d([m5C])[sp].d(T)[sp].d(T)[sp].d([m5C])[sp].d([m5C])[sp].d(A)[sp].[moe](A)p.[moe](G)p.[moe](G)[sp].[moe](A)}$$$$ (last 3' nucleoside missing) | 0.33 score 0-7 |
| RNA1{[moe](T)[sp].[moe](A)p.[moe](A)p.[moe](T)p.[moe]([m5C])p.[moe](A)p.d([m5C])[sp].d(T)[sp].d(T)[sp].d(T)[sp].d([m5C])[sp].d(A)[sp].d(T)[sp].d([m5C])[sp].d([m5C])[sp].d(A)[sp].[moe]([m5C])p.[moe](G)[sp].[moe](A)}$$$$ (last 3' nucleoside missing) | 0 score 0-7 |
| RNA1{[moe](T)[sp].[moe](A)p.[moe](A)p.[moe](T)p.[moe]([m5C])p.d(A)[sp].d([m5C])[sp].d(T)[sp].d(T)[sp].d(T)[sp].d([m5C])[sp].d(A)[sp].d(T)[sp].d([m5C])[sp].d([m5C])[sp].[moe](A)p.[moe]([m5C])p.[moe](G)[sp].[moe](A)}$$$$ (last 3' nucleoside missing) | 0 score 0-7 |
| RNA1{[moe](T)[sp].[moe](A)p.[moe](A)p.[moe](T)p.d([m5C])[sp].d(A)[sp].d([m5C])[sp].d(T)[sp].d(T)[sp].d(T)[sp].d([m5C])[sp].d(A)[sp].d(T)[sp].d([m5C])[sp].[moe]([m5C])p.[moe](A)p.[moe]([m5C])p.[moe](G)[sp].[moe](A)}$$$$ (last 3' nucleoside missing) | 0 score 0-7 |
| RNA1{[moe](T)[sp].[moe](A)p.[moe](T)p.[moe](T)p.[moe](T)p.d(T)[sp].d(T)[sp].d([m5C])[sp].d(T)[sp].d(A)[sp].d([m5C])[sp].d(A)[sp].d([m5C])[sp].d(T)[sp].d(G)[sp].[moe]([m5C])p.[moe](T)p.[moe](G)[sp].[moe]([m5C])}$$$$ (last 3' nucleoside missing) | 2.67 score 0-7 |
| RNA1{[moe](T)[sp].[moe](A)p.[moe](T)p.[moe](T)p.d(T)[sp].d(T)[sp].d(A)[sp].d(T)[sp].d(A)[sp].d(A)[sp].d(A)[sp].d(T)[sp].d(G)[sp].d([m5C])[sp].[moe]([m5C])p.[moe](G)p.[moe](A)p.[moe]([m5C])[sp].[moe](T)}$$$$ (last 3' nucleoside missing) | 2.67 score 0-7 |
| RNA1{[moe](T)[sp].[moe](A)p.[moe](T)p.[moe](T)p.d(T)[sp].d(T)[sp].d(T)[sp].d([m5C])[sp].d(T)[sp].d(A)[sp].d([m5C])[sp].d(A)[sp].d([m5C])[sp].d(T)[sp].[moe](G)p.[moe]([m5C])p.[moe](T)p.[moe](G)[sp].[moe]([m5C])}$$$$ (last 3' nucleoside missing) | 0 score 0-7 |

Source: the OligoGym collection
